{"source": "patent US20260041811A1", "about": "“HYDROGEL FOR THE REDUCTION OF BIOFILMS” (PAUL HARTMANN AG, priority 2022, published 2026)", "conditions": "alkaline pH versus neutral and acidic pH", "data": [{"smiles": "O=C([O-])CN(CCN(CC(=O)[O-])CC(=O)[O-])CC(=O)[O-].[Ag+].[Ag+].[Zn+2]", "note": "[Ag2Zn(EDTA)]", "values": [{"measurement": "stability of the active ingredient-containing solution (precipitation)", "result": "can be stabilized by an alkaline pH"}]}]}
